The target in the assay is Egl nine homolog 1 (Homo sapiens, UniProt Q9GZT9). Briefly: Inhibition of EGLN1.

pIC50: −log10 of the molar value.

Chain of Egl nine homolog 1 (Q9GZT9 whole entry): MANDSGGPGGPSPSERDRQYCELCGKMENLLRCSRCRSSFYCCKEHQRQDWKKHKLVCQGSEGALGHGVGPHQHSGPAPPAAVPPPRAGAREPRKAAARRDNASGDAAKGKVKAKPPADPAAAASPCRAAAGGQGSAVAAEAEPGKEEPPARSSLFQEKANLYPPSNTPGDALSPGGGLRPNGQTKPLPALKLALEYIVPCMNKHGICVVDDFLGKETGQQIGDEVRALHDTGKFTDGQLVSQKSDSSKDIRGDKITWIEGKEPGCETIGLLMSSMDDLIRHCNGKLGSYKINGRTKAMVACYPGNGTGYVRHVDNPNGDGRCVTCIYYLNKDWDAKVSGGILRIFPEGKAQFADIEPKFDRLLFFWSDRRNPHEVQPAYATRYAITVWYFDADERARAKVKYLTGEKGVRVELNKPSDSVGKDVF

`O=C(O)CNC(=O)c1cc(-c2ccc(Cl)cc2)ccn1` had a pIC50 of less than 4.00.
`O=C(O)CNC(=O)c1ccccn1` gave a negative-log IC50 (pIC50) of less than 4.00.
`O=C(O)CNC(=O)c1ccc(-c2cccc(Cl)c2)cn1` had a pIC50 of less than 4.00.

The values above are taken from ChEMBL document CHEMBL1138875, “Design and synthesis of substituted pyridine derivatives as HIF-1alpha prolyl hydroxylase inhibitors” (Bioorg Med Chem Lett, 2006).
